Measurements taken from the Deep4Chem optical property database.
Each block holds one compound with its values, some of them ahead of it.

Experiment: solvent given as SMILES

SMILES: Cc1nc2cccc(-c3nc4ccccc4s3)c2c(=O)[nH]1
absorption maximum (in CN(C)C=O): 319 nm

SMILES: CC1(C)C(/C=C/C=C/c2cc3ccc(O)cc3oc2=O)=[N+](CCCS(=O)(=O)[O-])c2ccccc21
absorption maximum (in CS(C)=O): 491 nm
absorption maximum (in O): 564 nm

SMILES: COCCN1C(=O)/C(=C/c2cccc(N(C)C)c2)N=C1C
absorption maximum (in C1CCOC1): 353 nm
absorption maximum (in CC#N): 353 nm
absorption maximum (in CCCCCC): 352 nm

SMILES: c1ccc(N2c3ccc4ccccc4c3-c3c4ccccc4cn[n+]3[B-]2(c2ccccc2)c2ccccc2)cc1
absorption maximum (in Cc1ccccc1): 524 nm

SMILES: CCCCCCc1ccc2c3c(ccc2c1)O[B-](c1ccccc1)(c1ccccc1)[N+](c1cc([N+]2=Cc4c(ccc5cc(CCCCCC)ccc45)O[B-]2(c2ccccc2)c2ccccc2)cc([N+]2=Cc4c(ccc5cc(CCCCCC)ccc45)O[B-]2(c2ccccc2)c2ccccc2)c1)=C3
absorption maximum (in C1CCOC1): 445 nm
absorption maximum (in CC#N): 440 nm
absorption maximum (in Cc1ccccc1): 453 nm
absorption maximum (in ClCCl): 450 nm

SMILES: CC1(C)c2ccccc2N(c2ccc(-c3ccc4c(c3)C(=O)c3ccc(-c5ccc(N6c7ccccc7C(C)(C)c7ccccc76)cc5)cc3C4=O)cc2)c2ccccc21
absorption maximum (in Cc1ccccc1): 446 nm

SMILES: CC1CC(C)(C)N(C)c2ccc(/C=C/c3ccc(/C=C(\C#N)C(=O)O)s3)cc21 (stereo unspecified)
absorption maximum (in ClCCl): 525 nm

SMILES: Cn1c2nc(=O)[nH]c(=O)c-2nc2ccccc21
absorption maximum (in CC1CCCO1): 459 nm

SMILES: [NH3+]C(Cc1ccccc1)C(=O)[O-] (stereo unspecified)
absorption maximum (in O): 258 nm

SMILES: CCN(CC)c1ccc2cc(/C=C/C(O)=C3\CC/C(=C\c4cc5ccc(N(CC)CC)cc5oc4=O)C3=O)c(=O)oc2c1
absorption maximum (in C1COCCO1): 513 nm
absorption maximum (in CC#N): 532 nm
absorption maximum (in CC(C)=O): 526 nm
absorption maximum (in CCOC(C)=O): 516 nm
absorption maximum (in CN(C)C=O): 546 nm
absorption maximum (in CS(C)=O): 556 nm
absorption maximum (in Cc1ccccc1): 511 nm
absorption maximum (in ClC(Cl)Cl): 525 nm

SMILES: CC[N+]1(CC)CN2C(=N1)C(C(=O)O)=Cc1c2ccc2ccccc12
absorption maximum (in O): 406 nm

SMILES: COc1ccc(-c2nc(C(C)=O)c(C)o2)cc1
absorption maximum (in CC#N): 278 nm
absorption maximum (in CCCCCC): 278 nm
absorption maximum (in CCO): 277 nm
absorption maximum (in CCOC(C)=O): 279 nm
absorption maximum (in CCOCC): 276 nm
absorption maximum (in ClCCl): 277 nm

SMILES: C(=C\c1nc(/C=C/c2ccc(-n3c4ccccc4c4ccccc43)cc2)nc(/C=C/c2ccc(-n3c4ccccc4c4ccccc43)cc2)n1)/c1ccc(-n2c3ccccc3c3ccccc32)cc1
absorption maximum (in C1CCOC1): 381 nm
absorption maximum (in CC#N): 376 nm
absorption maximum (in Cc1ccccc1): 389 nm
absorption maximum (in ClCCl): 383 nm

SMILES: CN1/C(=C/C=C/C2=[N+](C)c3ccccc3C2(C)C)Sc2ccccc21
absorption maximum (in CS(C)=O): 549 nm

SMILES: CC1=CC(C)=[N+]2C1=C(c1c3ccccc3cc3ccccc13)c1c(C)cc(C)n1[B-]2(F)F
absorption maximum (in CC#N): 502 nm
absorption maximum (in CCCCCC): 504 nm
absorption maximum (in CCO): 505 nm
absorption maximum (in CN(C)C=O): 505 nm
absorption maximum (in Cc1ccccc1): 508 nm
absorption maximum (in ClCCl): 506 nm

SMILES: c1ccc(N2c3ccc4ccccc4c3-c3c4ccccc4cc[n+]3[B-]2(c2ccccc2)c2ccccc2)cc1
absorption maximum (in Cc1ccccc1): 511 nm

SMILES: NC(=O)CC[C@H](/[NH+]=C\C=C1\C=C(C(=O)O)N[C@H](C(=O)O)C1)C(=O)O
absorption maximum (in CCO): 474 nm
absorption maximum (in CO): 471 nm
absorption maximum (in O): 475 nm
absorption maximum (in OCC(F)(F)F): 473 nm
absorption maximum (in OCCO): 478 nm

SMILES: Cc1cc(C)c(B(c2ccc(-c3ccc(-c4nc5c6ccccc6c6ccccc6c5[nH]4)cc3)cc2)c2c(C)cc(C)cc2C)c(C)c1
absorption maximum (in C1CCOC1): 375 nm
absorption maximum (in CC(C)=O): 373 nm
absorption maximum (in CS(C)=O): 378 nm
absorption maximum (in Cc1ccccc1): 374 nm
absorption maximum (in ClCCl): 371 nm

SMILES: Cc1c(C)n2c(COC(=O)c3ccccc3I)c(C)c(=O)n2c1=O
absorption maximum (in CCO): 377 nm

SMILES: CC(=O)OCCOCCN1C(=O)c2cc(NCCOCCO)c3c4c(cc(NCCOCCO)c(c24)C1=O)C(=O)N(CCOCCOC(C)=O)C3=O
absorption maximum (in CO): 604 nm
absorption maximum (in ClC(Cl)Cl): 610 nm
absorption maximum (in O): 622 nm

SMILES: CC(C)(C)C1Nc2c(Cl)cc(Cl)cc2C(=O)N1Cc1ccccc1 (stereo unspecified)
absorption maximum (in CC#N): 360 nm
absorption maximum (in CCCCCCCCCCCCCCCC): 350 nm
absorption maximum (in CO): 367 nm
absorption maximum (in ClC(Cl)Cl): 357 nm
absorption maximum (in c1ccccc1): 355 nm

SMILES: c1ccc(-n2c(-c3ccc([Si](c4ccc(-c5nc6ccccc6n5-c5ccccc5)cc4)(c4ccc(-c5nc6ccccc6n5-c5ccccc5)cc4)c4ccc(-c5nc6ccccc6n5-c5ccccc5)cc4)cc3)nc3ccccc32)cc1
absorption maximum (in ClCCl): 306 nm

SMILES: COC(=O)C(NC(=O)CCNc1cccc2ccccc12)c1ccccc1 (stereo unspecified)
absorption maximum (in CCO): 330 nm

SMILES: CCOC(=O)c1cc(C(=O)OCC)c2cc(C)ccc2n1
absorption maximum (in CCO): 330 nm

SMILES: CCn1c2ccccc2c2cc(-c3cc(-c4ccc5c(c4)c4ccccc4n5CC)nc(OC)n3)ccc21
absorption maximum (in C1CCOC1): 366 nm
absorption maximum (in CCOC(C)=O): 364 nm
absorption maximum (in CN(C)C=O): 369 nm
absorption maximum (in Cc1ccccc1): 365 nm
absorption maximum (in ClCCl): 366 nm

SMILES: Cc1ccc(C2=[N+]3C(=Cc4c(C)cc(C)n4[B-]3(F)F)c3ccccc32)[nH]1
absorption maximum (in C1CCOC1): 607 nm
absorption maximum (in CC#N): 600 nm
absorption maximum (in CCCCCC): 607 nm
absorption maximum (in CO): 602 nm
absorption maximum (in Cc1ccccc1): 612 nm
absorption maximum (in ClCCl): 608 nm

SMILES: CC1(CCCCC(=O)NCCCCCCO)C(/C=C/C=C/C=C2/N(CCCS(=O)(=O)[O-])c3ccc(S(=O)(=O)[O-])cc3C2(C)C)=[N+](CCCS(=O)(=O)[O-])c2ccc(S(=O)(=O)[O-])cc21 (stereo unspecified)
absorption maximum (in O): 651 nm

SMILES: CC1=CC(C)=[N+]2C1=C(c1c3ccccc3c(C)c3ccccc13)c1c(C)cc(C)n1[B-]2(F)F
absorption maximum (in CC#N): 503 nm
absorption maximum (in CCCCCC): 505 nm
absorption maximum (in CCO): 504 nm
absorption maximum (in CN(C)C=O): 506 nm
absorption maximum (in Cc1ccccc1): 509 nm
absorption maximum (in ClCCl): 506 nm

SMILES: c1ccc(-c2nnc(-c3ccc(-n4c5ccccc5c5ccccc54)cc3)o2)cc1
absorption maximum (in Cc1ccccc1): 340 nm

SMILES: CN(C)c1ccc(C2=Nc3scc(-c4ccc(C#N)cc4)[n+]3[B-](F)(F)O2)cc1
absorption maximum (in C1CCOC1): 411 nm
absorption maximum (in CC#N): 411 nm
absorption maximum (in Cc1ccccc1): 414 nm
absorption maximum (in ClCCl): 415 nm

SMILES: N#C/C(=C/Nc1ccc(C#N)cc1)c1nc(-c2ccccc2)cs1
absorption maximum (in CC#N): 372 nm
absorption maximum (in CCO): 373 nm
absorption maximum (in CN(C)C=O): 376 nm
absorption maximum (in Cc1ccccc1): 377 nm
absorption maximum (in ClCCl): 375 nm

Next, values leading:

absorption maximum (in ClCCl): 727 nm
SMILES: CCc1ccc(C2=[N+]3C(=Cc4c5ccc(OC)cc5c(-c5ccc(CC)s5)n4[B-]3(F)F)c3ccc(OC)cc32)s1

absorption maximum (in ClC(Cl)Cl): 341 nm
SMILES: CCCCCCCCC1(CCCCCCCC)c2cc(-c3ccc(C#N)cc3)ccc2-c2ccc(-c3ccc(C#N)cc3)cc21

absorption maximum (in ClC(Cl)Cl): 579 nm
SMILES: Cc1cc(C)c(C2=C3C=CC(c4ccc5c(ccc6ccccc65)c4)=[N+]3[B-](F)(F)n3c2ccc3-c2ccc3c(ccc4ccccc43)c2)c(C)c1

absorption maximum (in C1COCCO1): 403 nm
SMILES: COC(=O)c1ccc(/C=C2\N=C(c3ccc(OC)c(OC)c3)NC2=O)cc1

absorption maximum (in ClCCl): 339 nm
SMILES: COc1ccc(-c2ccc(C(=O)NC(C)(C)C)c3c2ccc2c4ccccc4c4ccccc4c23)cc1

absorption maximum (in ClC(Cl)Cl): 340 nm
SMILES: CCCCCCN1C(=O)c2cccc3cc(/N=C\c4ccc5c(c4)c4ccccc4n5CC)cc(c23)C1=O

absorption maximum (in ClC(Cl)Cl): 410 nm
SMILES: Cc1ccccc1C1CC(=O)Oc2c1c1nc3ccccc3nc1c1ccccc21 (stereo unspecified)

absorption maximum (in ClC(Cl)Cl): 323.56 nm
SMILES: Fc1ccc(-c2cc3c4c(c2)CCc2cc(-c5ccc(F)cc5)cc(c2-4)CC3)cc1

absorption maximum (in C1CCOC1): 511 nm
SMILES: CC1=[N+]2C(=C(c3ccc(C(=C(c4ccccc4)c4ccccc4)c4ccccc4)cc3)c3ccc(C)n3[B-]2(F)F)C=C1

absorption maximum (in ClCCl): 406 nm
SMILES: [O-][n+]1c(/C=C/c2ccc(/C=C/c3ccccc3)cc2)nc(N2CCOCC2)c2c1CCCC2

absorption maximum (in ClCCl): 389 nm
SMILES: FC(F)(F)c1ccccc1B1c2ccccc2N(c2ccccc2)c2ccccc21

absorption maximum (in CN(C)C=O): 347 nm
SMILES: C(=C\c1ccc(-c2nnc(-c3ccccc3)o2)cc1)/c1ccc(-c2nnc(-c3ccccc3)o2)cc1

absorption maximum (in ClCCl): 573 nm
SMILES: c1cc2ccc3[o+]c4ccc5cccc6c7cccc8c(c1)c2c3c(c87)c4c56

absorption maximum (in ClCCl): 360 nm
SMILES: COc1cccc2cc(C)c3c4ccccc4[nH]c3c12

absorption maximum (in ClCCl): 378 nm
SMILES: CCOC(=O)c1ccc(C2CC(c3cccc4ccccc34)=NN2c2ccc(Cl)cc2)cc1 (stereo unspecified)

absorption maximum (in CCO): 594 nm
SMILES: CC1=CC(C)(C)N(C)c2cc3c(cc21)C(c1ccc(Br)cc1)=c1cc2c(cc1O3)=[N+](C)C(C)(C)C=C2C

absorption maximum (in ClCCl): 310 nm
SMILES: c1ccc(N2c3ccccc3C3(c4ccccc4-c4ccccc43)c3ccccc32)cc1

absorption maximum (in ClC(Cl)Cl): 646 nm
SMILES: Cc1cc(C)c(C2=C3C=CC=[N+]3[B-]3(c4cccc5ccccc45)Oc4cc(O)cc5c6ccc(C)cc6c6cc2n3c6c45)c(C)c1 (stereo unspecified)

absorption maximum (in C1CCOC1): 410 nm
absorption maximum (in CC#N): 410 nm
absorption maximum (in CCCCCCC): 402 nm
absorption maximum (in CS(C)=O): 423 nm
absorption maximum (in ClCCl): 414 nm
SMILES: C(=C\c1cnc2ccccc2n1)/c1ccc(N2CCCCC2)cc1

absorption maximum (in ClCCl): 390 nm
SMILES: CN(C)c1ccc(/C=C/c2cnc(C#Cc3ccc(C#N)cc3)o2)cc1

absorption maximum (in C1CCOC1): 505 nm
SMILES: c1cc2c3c4c5c(cccc5cc3c1)-c1cccn1B4n1cccc1-2

absorption maximum (in ClCCl): 396 nm
SMILES: O=C1c2cc3ccccc3cc2C2=Nc3cccc[n+]3[B-](F)(F)N12

absorption maximum (in O): 389 nm
SMILES: C[NH+](C)c1c2ccccc2cc2ccccc12

absorption maximum (in ClC(Cl)Cl): 406 nm
SMILES: c1ccc(-c2nc(-c3ccccn3)[se]c2N(c2ccccc2)c2ccccc2)cc1

absorption maximum (in ClCCl): 401 nm
SMILES: c1ccc(C2c3ccc4ccc5ccccc5c4c3-c3c2ccc2ccc4ccccc4c32)cc1

absorption maximum (in CCO): 367 nm
absorption maximum (in ClCCl): 370 nm
SMILES: O=Cc1ccc(-c2cccc(-c3nc4ccccc4s3)c2O)s1

absorption maximum (in ClCCl): 355 nm
SMILES: Clc1ccc(/C=C/c2cnc3ccccc3n2)cc1

absorption maximum (in ClCCl): 392 nm
SMILES: COC(=O)c1[nH]c(-c2ccccc2)c2nnc3ccc(OC)cc3c12

absorption maximum (in ClCCl): 411 nm
SMILES: CCCc1cc2c(s1)-c1cc3c(cc1NB2c1ccccc1)-c1sc(CCC)cc1B(c1ccccc1)N3
